# Source: patent US6750228B1, “Aromatic sulfone hydroxamic acid metalloprotease inhibitor” (priority 1997, dated 2004)
# Structures can show the parent of a compound that is named as a salt.
# Assays:
# Experiment in all cases: biochemical
# MMP-13 = target: T1, MMP-13 (Homo sapiens, UniProt P45452); details: recombinant human MMP-13, MCA peptide substrate 4 μM, pH 7.5, room temperature; read-out: MMP-13 IC50
# T1 construct: made in house; host or cells: baculovirus / insect cells
# Protocol: (§1) The compounds prepared in the manner described in the Examples above were assayed for activity by an in vitro assay. […] Briefly, 4-aminophenylmercuric acetate (APMA) or trypsin-activated MMPs were incubated with various concentrations of the inhibitor compound at room temperature for 5 minutes.
# (§2) The expressed enzyme was purified first over a heparin agarose column and then over a chelating zinc chloride column. The proenzyme was activated by APMA for use in the assay.
# (§3) MMP-1 expressed in transfected HT-1080 cells was provided by Dr. Harold Welgus of Washington University, St. Louis, Mo. The enzyme was also activated using APMA and was then purified over a hydroxamic acid column. Dr. Welgus also provided transfected HT-1080 cells that expressed MMP-9. Transfected cells that expressed MMP-2 were provided by Dr. Gregory Goldberg, also of Washington University. Studies with MMP-7 were carried out at pH 7.5 in the presence of 0.02% 2-mercaptoethanol using conditions otherwise similar to those used for the other enzymes. The enzyme was obtaind from a hMMP-7-expressing E. coli clone that was a gift of Dr. Steven Shapiro of Washington University, St. Louis, Mo. Further specifics for preparation and use of these enzymes can be found in the scientific literature describing these enzymes. See, for example, Enzyme Nomenclature, Academic Press, San Diego, Calif. […] The enzyme substrate is a methoxycoumarin-containing polypeptide having the following sequence:
# (§4) MCA-ProLeuGlyLeuDpaAlaArgNH2, wherein MCA is methoxycoumarin and Dpa is 3-(2,4-dinitrophenyl)-L-2,3-diaminopropionyl alanine.
# (§5) The buffer used for assays contained 100 mM Tris-HCl, 100 mM NaCl, 10 mM CaCl2 and 0.05 percent polyethyleneglycol (23) lauryl ether at a pH value of 7.5. Assays were carried out at room temperature, and dimethyl sulfoxide (DMSO) at a final concentration of 1 percent was used to dissolve inhibitor compound.
# (§6) The assayed inhibitor compound in DMSO/buffer solution was compared to an equal amount of DMSO/buffer with no inhibitor as control using Microfluor White Plates (Dynatech). The inhibitor or control solution was maintained in the plate for 10 minutes and the substrate was added to provide a final concentration of 4 μM.
# (§7) Inhibition was measured as a reduction in fluorescent intensity as a function of inhibitor concentration, using a Perkin Elmer L550 plate reader. The IC50 values were calculated from those values. The results are set forth in the Inhibition Table A, below, reported in terms of IC50 to three significant figures, where appropriate.
# MMP-1 = target: T2, MMP-1 (Homo sapiens, UniProt P03956); details: recombinant human MMP-1, MCA peptide substrate 4 μM, pH 7.5, room temperature; read-out: MMP-1 IC50
# T2 construct: made in house; host or cells: transfected HT-1080 cells (provided by Dr. Harold Welgus, Washington University)
# T2 sequence (P03956 100-469): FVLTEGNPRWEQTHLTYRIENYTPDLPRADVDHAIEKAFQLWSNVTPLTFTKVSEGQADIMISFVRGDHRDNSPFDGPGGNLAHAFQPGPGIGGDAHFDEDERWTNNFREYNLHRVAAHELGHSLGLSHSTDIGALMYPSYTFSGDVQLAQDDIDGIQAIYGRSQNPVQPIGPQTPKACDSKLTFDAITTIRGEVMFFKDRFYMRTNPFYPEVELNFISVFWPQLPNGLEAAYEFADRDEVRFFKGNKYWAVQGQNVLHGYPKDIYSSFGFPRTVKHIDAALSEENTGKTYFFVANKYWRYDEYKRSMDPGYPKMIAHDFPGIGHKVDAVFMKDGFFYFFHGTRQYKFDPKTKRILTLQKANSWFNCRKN
# Protocol: as §1, §2, §3, §4, §5, §6, §7
# MMP-2 = target: T3, MMP-2 (Homo sapiens, UniProt P08253); details: recombinant human MMP-2, MCA peptide substrate 4 μM, pH 7.5, room temperature; read-out: MMP-2 IC50
# T3 construct: made in house; provided by Dr. Gregory Goldberg, Washington University
# T3 sequence (P08253 110-660): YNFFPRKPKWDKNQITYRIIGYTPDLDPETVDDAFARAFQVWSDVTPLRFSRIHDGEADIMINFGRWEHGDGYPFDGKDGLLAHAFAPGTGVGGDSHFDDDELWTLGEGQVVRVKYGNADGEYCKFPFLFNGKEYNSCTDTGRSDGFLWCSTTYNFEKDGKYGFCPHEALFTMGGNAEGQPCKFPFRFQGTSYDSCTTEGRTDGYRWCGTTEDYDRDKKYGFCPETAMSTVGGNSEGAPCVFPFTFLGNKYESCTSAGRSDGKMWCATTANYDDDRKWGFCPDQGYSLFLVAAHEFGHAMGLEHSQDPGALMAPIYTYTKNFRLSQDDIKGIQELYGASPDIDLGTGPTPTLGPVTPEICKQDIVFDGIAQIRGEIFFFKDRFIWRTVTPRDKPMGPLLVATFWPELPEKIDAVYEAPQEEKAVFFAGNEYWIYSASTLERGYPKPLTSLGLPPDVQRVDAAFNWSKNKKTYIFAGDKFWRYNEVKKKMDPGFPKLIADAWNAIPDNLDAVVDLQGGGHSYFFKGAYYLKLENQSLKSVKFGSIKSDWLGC
# Protocol: as §1, §2, §3, §4, §5, §6, §7
SMILES,IC50 (MMP-13),IC50 (MMP-1),IC50 (MMP-2)
"COCCN1CCC(C(=O)NO)(S(=O)(=O)c2ccc(Oc3ccc(-n4cncn4)cc3)cc2)CC1 [Example 262, N-Hydroxy-1-(2-methoxyethyl)-4-[[4-[4-(1H-1,2,4-triazol-1-yl)phenoxy]phenyl]sulfonyl]-4-piperidinecarboxamide Trihydrochloride]",1.5 nM,> 10000 nM,0.9 nM
CC(C)CCOCc1ccc(COC2CCN(c3ccc(S(=O)(=O)C4(C(=O)NO)CCOCC4)cc3)CC2)cc1 [Example 600],9 nM,> 10000 nM,600 nM
O=C(NO)C1(S(=O)(=O)c2ccc(Oc3ccc(OC(F)(F)F)cc3)cc2)CCN(c2cccnc2)CC1 [Example 392],0.2 nM,> 10000 nM,0.1 nM
CC(C)COCc1ccc(COC2CCN(c3ccc(S(=O)(=O)C4(C(=O)NO)CCOCC4)cc3)CC2)cc1 [Example 555],3.7 nM,> 10000 nM,220 nM
O=C(NO)C1(S(=O)(=O)c2ccc(N3CCN(c4ccc(F)cc4F)CC3)cc2)CCOCC1 [Example 87],4 nM,> 10000 nM,15.5 nM
O=C(NO)C1(S(=O)(=O)c2ccc(N3CCCC(COCc4ccc(F)cc4)C3)cc2)CCOCC1 (stereo not drawn) [Example 505],14 nM,> 10000 nM,72 nM
"O=C(NO)C1(S(=O)(=O)c2ccc(N3CCC(Oc4ccccc4)CC3)cc2)CCOCC1 [Example 185, N-Hydroxy-4[[[4-(4-phenoxy)piperidyl]phenyl]sulfonyl]-1-tetrahydropyrancarboxamide]",2.2 nM,> 10000 nM,32.6 nM
O=C(NO)C1(S(=O)(=O)c2ccc(N3CCC(Sc4ccccc4)CC3)cc2)CCN(C2CC2)CC1 [Example 389],1.7 nM,> 10000 nM,16.1 nM
CC1CCN(c2ccc(S(=O)(=O)C3(C(=O)NO)CCOCC3)cc2)CC1 [Example 495],14.5 nM,> 10000 nM,21.1 nM
COc1ccc(C(=O)C2CCN(c3ccc(S(=O)(=O)C4(C(=O)NO)CCOCC4)cc3)CC2)cc1 [Example 647],6 nM,> 10000 nM,160 nM
O=C(NO)C1(S(=O)(=O)c2ccc(N3CCC(OCc4ccc(OC(F)(F)F)cc4)CC3)cc2)CCN(C2CC2)CC1 [Example 418],7 nM,> 10000 nM,1400 nM
"Cc1ccc(N2CCC(C(=O)NO)(S(=O)(=O)c3ccc(Oc4ccc(OC(F)(F)F)cc4)cc3)CC2)cc1 [Example 229, N-Hydroxy-1-(4-methylphenyl)-4-[[4-[4-(trifluoromethoxy)phenoxy]phenyl]sulfonyl]-4-piperidinecarboxamide Monohydrochloride]",0.18 nM,> 10000 nM,0.1 nM
CCCCCC(=O)N1CCN(c2ccc(S(=O)(=O)C3(C(=O)NO)CCOCC3)cc2)CC1 [Example 592],57 nM,> 10000 nM,690 nM
O=C(NO)C1(S(=O)(=O)c2ccc(N3CCC(OCc4cccc(F)c4)CC3)cc2)CCOCC1 [Example 575],10.7 nM,> 10000 nM,110 nM
C/C=C/CC(=O)C1CCN(c2ccc(S(=O)(=O)C3(C(=O)NO)CCOCC3)cc2)CC1 [Example 761],5 nM,> 10000 nM,41.8 nM
